Laboratory results from patent US5780472A, “Piperazine derivatives and methods for the preparation thereof and compositions containing the same” (Samjin Pharmaceuticazl Co., Ltd., priority 1995, dated 1998).
Converted amounts (≈) assume the structure as drawn. Structures can show the parent of a compound that is named as a salt.

Assays:
[1] = tested on: mouse leukemia P388 cells; assay: In vivo antitumor effects against mouse leukemia P388 cells; settings: for T/C (%) etc.: days 1, 5, 9, median survival time; for antitumor effect in P388 mice: in words
Method: 1) Leukemia P388 cells being transfer-cultured succesively in DBA/2 mouse, were grafted i.p. into each mouse of a group comprising 8 mice of 6 week old BDFI mouse as the dose of 1×10^6 cells/0.1 ml.
2) Sample drugs were dissolved in PBS or suspended in 0.5% Tween 80, and then injected into abdominal cavity of mouse at each prescribed concentration on days 1, 5, 9, respectively.
3) With observation every day, survival times of tested mice were measured. Antitumor activities was determined in such a manner that the increasing ratio(T/C %) of average survival days of drug-treated groups compared with the control group was calculated using the mean survival times of each tested groups.
* Experimental Conditions for Mouse P388
(§1) Animal: BDFI mouse (8 mice/group)
Inoculum size: 10^6 cells/mouse
(§2) Treatment time: days 1, 5, 9
(§3) Parameter: median survival time

[2] = tested on: 5 kinds of human solid cancer cell lines; assay: In vitro antitumor activity against 5 human solid cancer cell lines compared with cisplatin (SRB assay); format: cell-based; settings: in words
Method: Antitumor activities of the compounds of present invention were tested. Antitumor activities of compounds of the present invention were tested in vitro against 5 kinds of human tumor cell lines and 2 kinds of leukemia tumor cell lines. The method of in vitro test is as follows.
B. Method of test(SRB Assay Method)
a. Human solid tumor cell lines, […](non-small lung cell), SKMEL-2(melanoma), HCT-15(colon), SKOV-3(ovarian), XF-498(CNS) were cultured at 37° C., in 5% CO2 incubater using the RPMI 1640 media containing 10% FBS, while they were transfer-cultured successively once or twice per week. Cell cultures were dissolved into the solution of 0.25% trypsin and 3 mM CDTA PBS(-) and then cells were separated from media which the cells were sticked on.
b. 5×10^3 -2×10^4 cells were added into each well of 96-well plate and cultured in 5% CO2 incubater, at 37° C., for 24 hours.
c. Each sample drugs was dissolved in a small quantity of DMSO, and diluted to concentrations prescribed in experiment with media, and then the final concentration of DMSO was controlled below 0.5%.
d. A medium of each well cultured for 24 hours as above b., was removed by aspiration. 200 μl of drug samples prepared in c. was added into each well and the wells were cultured for 48 hours. Tz(time zero) plates were collected at the point of time drugs were added.
e. After Tz plates and plates were treated with cell fixing by TCA of SRB assay method, staining of 0.4% SRB solution, washing with 1% acetic acid, OD values were measured at 520 nm, following elution of dye with 10 mM Tris solution.
e. If T≥Tz, cellular response function was calculated with 100×(T-Tz)/(C-Tz), and if T<Tz, with 100×(T-Tz)/Tz.

[3] = tested on: L1210 (mouse leukemia cell); assay: In vitro antitumor effects against animal leukemia cells (dye exclusion assay), L1210; format: cell-based; settings: 50% cell growth inhibition, 37° C., trypan blue; for IC50: Mus musculus, L1210, 48 h, read-out: ED50 (the source's name); for ED50: 48 hours, hydrochloride, 2880 min
Method: L1210(mouse leukemia cell)
(§4) B. Method of Experiment(Dye Exclusion Assay)
(§5) 2) Sample drugs diluted with log dose were added into the cells, and it were cultured at 37° C., for 48 hours, in […] incubater, and then viable cell number was measured, Viable cell number was measured with dye exclusion test using trypan blue.

[4] = tested on: P388 (mouse lymphoid neoplasma cell); assay: In vitro antitumor effects against animal leukemia cells (dye exclusion assay), P388; format: cell-based; settings: 50% cell growth inhibition, 37° C., trypan blue; for ED50: 48 hours, 2880 min; for IC50: Mus musculus, P388, 48 h, read-out: ED50 (the source's name)
Method: P388 (mouse lymphoid neoplasma cell)
as §4, §5

[5] = tested on: ICR mice; assay: Acute toxicity test (LD50), Litchfield-Wilcoxon method; format: in vivo, mouse; parameters: unit not given here; settings: male ICR mice, 14 days
[6] = tested on: B16 Melanoma; assay: In vivo antitumor activities against mouse solid tumor, B16 melanoma; settings: for T/C (%) Etc.: days 1, 5, 9, median survival time; for antitumor activities in B16 mouse melanoma: in words
Method: BDF1 mouse was used in experiment while being successively transfer cultured in C57BL/6 mice by s.c.
1) After 1 g of tumor was added into cold balanced salt solution up to be 10 ml, it was homogenized (10:1,brei).
2) 0.5 ml Brei of the above 1) were grafted into each BDFI mouse by i.p.
3) Median survival time was measured, and the activity was determined in such a manner that if T/C was over 125%, it presented moderate activity, while if it is over 150%, it had significant activity.
* Experimental Conditions for Mouse B16 Melanoma.
as §1
Inoculum size: 10^5 cells/mouse
as §2, §3

[7] = tested on: L1210 and P388 mouse cancer cells; assay: In vitro antitumor activity against L1210 and P388 compared with mitomycin C (dye exclusion assay); format: cell-based; settings: in words
Method: as §4
1) L-1210 and P388 cells that were cultured in RPMI 1640 media containing 10% FBS were regulated as the cell concentration of 1×10^6 cells/ml.
as §5
3) The concentration of sample compounds of 50% cell growth inhibition compared with standard group was determined as IC50.

CCc1cc(NC(=O)N2CCN(c3ccccc3OC)CC2)c(OC)nc1C [Example 1, 1-[(5-ethyl-2-methoxy-6-methylpyridin-3-yl)aminocarbonyl]-4-(2-methoxyphenyl)piperazine]
T/C (%) etc. ([1]; 50 mg/kg i.p.): 109.1% | T/C (%) etc. ([1]; 100 mg/kg i.p.): 134.6% | antitumor effect in P388 mice [1]: significant antitumor effect | antitumor activities compared with cisplatin [2]: superior antitumor activities to those of cisplatin | IC50 [3]: 1.6 µg/mL (≈ 4.16 µM) | ED50 [4]: 0.6 µg/mL (≈ 1.56 µM)

CCc1cc(NC(=O)N2CCN(c3cc(OC)cc(OC)c3)CC2)c(OC)nc1C [Example 6, 1-[(5-ethyl-2-methoxy-6-methylpyridin-3-yl)aminocarbonyl]-4-(3,5-dimethoxyphenyl)piperazine]
T/C (%) etc. ([1]; 50 mg/kg i.p.): 133.3% | T/C (%) etc. ([1]; 100 mg/kg i.p.): 183.3% | antitumor effect in P388 mice [1]: significant antitumor effect | antitumor activities compared with cisplatin [2]: superior antitumor activities to those of cisplatin | IC50 [3]: 0.6 µg/mL (≈ 1.45 µM) | LD50 ([5]; i.p.): 248.5 | LD50 ([5]; p.o.): > 622 | IC50 [4]: 0.3 µg/mL (≈ 0.724 µM) | T/C (%) Etc. ([6]; Dose 50 (unit not given) i.p.): 127.3% | T/C (%) Etc. ([6]; Dose 100 (unit not given) i.p.): 124.2% | T/C (%) Etc. ([6]; Dose 200 (unit not given) i.p.): 139.4% | antitumor activities in B16 mouse melanoma [6]: significant antitumor activities | antitumor activities compared with mitomycin C [7]: same or more excellent antitumor activities

CCc1cc(NC(=O)N2CCN(c3cccc(Cl)c3)CC2)c(OC)nc1C [Example 16, 1-[(5-ethyl-2-methoxy-6-methylpyridin-3-yl)aminocarbonyl]-4-(3-chlorophenyl)piperazine]
T/C (%) etc. ([1]; 50 mg/kg i.p.): 113.6% | T/C (%) etc. ([1]; 100 mg/kg i.p.): 131.8% | antitumor effect in P388 mice [1]: significant antitumor effect | IC50 [3]: 1.8 µg/mL (≈ 4.63 µM) | IC50 [4]: 1.6 µg/mL (≈ 4.11 µM) | T/C (%) Etc. ([6]; Dose 50 (unit not given) i.p.): 115.2% | T/C (%) Etc. ([6]; Dose 100 (unit not given) i.p.): 127.3% | T/C (%) Etc. ([6]; Dose 200 (unit not given) i.p.): 118.2% | antitumor activities in B16 mouse melanoma [6]: significant antitumor activities

CCc1cc(NC(=O)N2CCN(c3cc(C)cc(C)c3)CC2)c(OC)nc1C [Example 29, 1-[(5-ethyl-2-methoxy-6-methylpyrdin-3-yl)aminocarbonyl]-4-(3,5-dimethylphenyl)piperazine]
T/C (%) etc. ([1]; 50 mg/kg i.p.): 136.4% | T/C (%) etc. ([1]; 100 mg/kg i.p.): 190.9% | antitumor effect in P388 mice [1]: significant antitumor effect | antitumor activities compared with cisplatin [2]: superior antitumor activities to those of cisplatin | IC50 [3]: 0.4 µg/mL (≈ 1.05 µM) | IC50 [4]: 0.5 µg/mL (≈ 1.31 µM) | antitumor activities compared with mitomycin C [7]: same or more excellent antitumor activities

COc1ccccc1N1CCN(C(=O)Nc2cc(C)c(C)nc2OC)CC1 [Example 108]
antitumor activities compared with cisplatin [2]: superior antitumor activities to those of cisplatin | IC50 [3]: 0.8 µg/mL (≈ 2.16 µM) | LD50 ([5]; i.p.): > 2,000 | LD50 ([5]; p.o.): > 3,110 | IC50 [4]: 0.9 µg/mL (≈ 2.43 µM) | antitumor activities compared with mitomycin C [7]: same or more excellent antitumor activities

COc1cc(OC)cc(N2CCN(C(=O)Nc3cc(C)c(C)nc3OC)CC2)c1 [Example 118, 1-[(5,6-dimethyl-2-methoxypyridin-3-yl)aminocarbonyl]-4-(3,5-dimethoxyphenyl)piperazine]
antitumor activities compared with cisplatin [2]: superior antitumor activities to those of cisplatin | IC50 [3]: 0.06 µg/mL (≈ 0.15 µM) | LD50 ([5]; i.p.): 182.8 | LD50 ([5]; p.o.): 571.8 | IC50 [4]: 0.06 µg/mL (≈ 0.15 µM) | antitumor activities compared with mitomycin C [7]: same or more excellent antitumor activities

COc1ccccc1N1CCN(C(=S)Nc2cc(C)c(C)nc2OC)CC1 [Example 128]
antitumor activities compared with cisplatin [2]: superior antitumor activities to those of cisplatin | IC50 [3]: 0.5 µg/mL (≈ 1.29 µM) | IC50 [4]: 0.2 µg/mL (≈ 0.517 µM) | antitumor activities compared with mitomycin C [7]: same or more excellent antitumor activities

CCc1cc(NC(=O)N2CCN(c3ccccc3OC)CC2)c(OC)nc1C [Example 148, 1-[(5-ethyl-2-methoxy-6-methylpyridin-3-yl)aminocarbonyl]-4-[(2-methoxyphenyl)piperazine-2-yl]piperazine salt of hydrochloride]
ED50 [3]: 1.5 µg/mL | LD50 ([5]; i.p.): 425.3 | ED50 ([4]; hydrochloride): 1.3 µg/mL | antitumor activities compared with mitomycin C [7]: same or more excellent antitumor activities

CCc1cc(NC(=O)N2CCN(c3cccc(Cl)c3)CC2)c(OC)nc1C [Example 149, 1-[(5-ethyl-2-methoxy-6-methylpyridin-3-yl)aminocarbonyl]-4-(3-chlorophenyl)piperazine salt of hydrochloride]
antitumor activities compared with cisplatin [2]: superior antitumor activities to those of cisplatin | ED50 [3]: 0.9 µg/mL | LD50 ([5]; i.p.): 410.5 | antitumor activities compared with mitomycin C [7]: same or more excellent antitumor activities
